Measured values: US8507411B2, “Neoglycorandomization and digitoxin analogs” (priority 2004, dated 2013)
Where two headings read alike, the source gives them in different places.

How the values were obtained:
NCI-H460 = assay: High-throughput calcein AM cytotoxicity assay, NCI-H460; type: cell-based, human; conditions: NCI-H460 cells
Source text: (§1) Standard errors are depicted with error bars.

A549 = assay: High-throughput calcein AM cytotoxicity assay, A549; type: cell-based, human; conditions: A549 cells
Source text: as §1

SK-OV-3 = assay: cells; type: cell-based, human; conditions: SK-OV-3 cells
Source text: (§2) In the assay, live cells were distinguished by the presence of a ubiquitous intracellular enzymatic activity which converts the non-fluorescent cell-permeable molecule calcein AM to the intensely fluorescent molecule calcein, which is retained within live cells. The IC50 value for each library member represents at least six replicates of dose-response experiments conducted over five concentrations using two-fold dilutions. […] Standard errors are depicted with error bars. Numerical values and corresponding error values can be found in Table 4. Du145: […]; MCF7: human breast carcinoma; HCT-116: human colon carcinoma, Hep3B: human liver carcinoma; SF-268: human CNS glioblastoma; SK-OV-3: human ovary adenocarcinoma; NCI-H460: human lung carcinoma; A549: human lung adenocarcinoma; NCI/ADR-RES: human breast carcinoma; NmuMG: mouse mammary normal epithelial.
(§3) Cell Culture: All cell lines except NmuMG were maintained in RPMI 1640 medium from InVitrogen (Cat No. 11875-085) supplemented with 10% w/v fetal bovine serum (FBS) from ICN (Cat No. 2916154) and penicillin-streptomycin (PS) (100 U/mL and 100 μg/mL) from InVitrogen (Cat No. 15140-122). NmuMG cells were maintained in DMEM medium from InVitrogen (Cat No. 11965-084) supplemented with 10% w/v fetal bovine serum (FBS) from ICN (Cat No. 2916154), 10 μg/ml insulin (InVitrogen Cat No 12585-014), and penicillin-streptomycin (PS) (100 U/mL and 100 μg/mL) from InVitrogen (Cat No. 15140-122). Cells were harvested by trypsinization using 0.25% w/v trypsin and 0.1% w/v EDTA from InVitrogen (Cat No. 15-050-057) and then counted in a hemocytometer in duplicate with better than 10% agreement in field counts. Cells were plated at a cell density of 10,000-15,000 cells/well of each Corning Costar 96-well black tissue culture treated microtiter plate (Fisher Cat No. 07-200-627). Cells were grown for 1 h at 37° C., with 5% CO2 in a humidified incubator to allow cell attachment to occur before compound addition.
(§4) Library Member Handling and Preparation for Cytotoxicity Assays: Library members were stored at −20° C. under dessicating conditions before the assay. Library member stocks (100×) were prepared in Corning Costar polypropylene 96-well V-bottom polypropylene microtiter plates (Fisher Cat No. 07-200-695). Five serial 1:2 dilutions were made with anhydrous DMSO at 100× the final concentration used in the assay.
(§5) Library Member Addition: The library member-containing plates were diluted 1:10 with complete cell culture media. The 10× stocks (10 μL) were added to the attached cells using a Biomek FX liquid handler (Beckman-Coulter). Library member stocks (10 μL) were added to 90 μL of cells in each plate to insure full mixing of stocks with culture media using a Beckman FX liquid handler with 96-well head.
(§6) Determination of Cytotoxicity: Cells were incubated with the library members for 72 h before fluorescence reading. Test plates were removed from the incubator and washed 1× in sterile PBS to remove serum containing calcium esterases. Calcein AM reagent (30 μL, […]) was added and the cells were incubated for 30 min at 37° C. Plates were read for emission using a fluorescein filter (excitation 485 nm, emission 535 nm).
(§7) IC50 Calculation: For each library member, at least six dose response experiments were conducted. […] To calculate IC50, percent inhibitions were plotted as a function of log [concentration] and then fit to a four-parameter logistic model that allowed for a variable Hill slope using XLfit 4.1.
(§8) Cytotoxicity Assays. All cell lines except NmuMG were maintained in RPMI 1640 medium supplemented with 10% w/v fetal bovine serum (FBS) and penicillin-streptomycin (PS) (100 U/mL and 100 μg/mL).

NCI/ADR-RES = assay: cells; type: cell-based, human; conditions: NCI/ADR-RES cells
Source text: as §2, §3, §4, §5, §6, §7, §8

SF-268 = assay: cells; type: cell-based, human; conditions: SF-268 cells
Source text: as §2, §3, §4, §5, §6, §7, §8

Hep3B = assay: High-throughput calcein AM cytotoxicity assay, Hep3B; type: cell-based, human; conditions: Hep 3B cells
Source text: as §1

NmuMG = assay: cells; type: cell-based, mouse
Source text: as §2, §3, §4, §5, §6, §7, §8

MCF7 = assay: High-throughput calcein AM cytotoxicity assay, MCF7; type: cell-based, human; conditions: MCF7 cells
Source text: as §1

HCT-116 = assay: High-throughput calcein AM cytotoxicity assay, HCT-116; type: cell-based, human; conditions: HCT-116 cells
Source text: as §1

Du145 = assay: High-throughput calcein AM cytotoxicity assay, Du145; type: cell-based, human; conditions: Du145 cells
Source text: as §1

[1] = NmuMG mouse mammary normal epithelial control line, read-out: IC50, NmuMG
[2] = NmuMG cells (mouse mammary normal epithelial control line), read-out: IC50

Molecule | IC50 (NCI-H460; read-out: IC50, NCI-H460) [µM] | IC50 (A549; read-out: IC50, A549) [µM] | IC50 (SK-OV-3; read-out: IC50, SK-OV-3) [µM] | IC50 (NCI/ADR-RES; read-out: IC50, NCI/ADR-RES) [µM] | IC50 (SF-268; read-out: IC50, SF-268) [µM] | IC50 (Hep3B; read-out: IC50, Hep 3B) [µM] | IC50 (NmuMG; [1]) [µM] | IC50 (MCF7; read-out: IC50, MCF7) [µM] | IC50 (HCT-116; read-out: IC50, HCT-116) [µM] | IC50 (Du145; read-out: IC50, Du145) [µM] | IC50 (NmuMG; [2]) [µM] | IC50 (NCI-H460; read-out: IC50) [µM] | IC50 (A549; read-out: IC50) [µM] | IC50 (SK-OV-3; read-out: IC50) [µM] | IC50 (NCI/ADR-RES; read-out: IC50) [µM] | IC50 (SF-268; read-out: IC50) [µM] | IC50 (Hep3B; read-out: IC50) [µM] | IC50 (MCF7; read-out: IC50) [µM] | IC50 (HCT-116; read-out: IC50) [µM] | IC50 (Du145; read-out: IC50) [µM]
CON(C1CCC2(C)C(CCC3C2CCC2(C)C(C4=CC(=O)OC4)CCC32O)C1)C1OC(CO)C(O)C(O)C1O [22α, D-galactoside] | > 25 | > 25 | > 25 | > 25 | > 25 | > 25 | > 25 | > 25 | > 25 | > 25 |  |  |  |  |  |  |  |  |  | 
CON(C1CCC2(C)C(CCC3C2CCC2(C)C(C4=CC(=O)OC4)CCC32O)C1)C1OC(CO)C(O)C(O)C1O [39β, L-taloside] | 1.1 | 0.89 | 1.5 | 1 | 1.4 | 0.96 | 0.5 | 1.8 | 2.3 | 0.76 |  |  |  |  |  |  |  |  |  | 
CON([C@H]1CC[C@@]2(C)[C@H](CC[C@@H]3[C@@H]2CC[C@]2(C)[C@@H](C4=CC(=O)OC4)CC[C@]32O)C1)[C@@H]1O[C@H](CO)[C@@H](O)C[C@H]1O [10β, 3-deoxy-D-glucoside] | 1.6 | 1.6 | 2.5 | 0.44 | 0.77 | 1.7 | 0.94 | 0.46 | 1.8 | 0.8 |  |  |  |  |  |  |  |  |  | 
CON(C1CCC2(C)C(CCC3C2CCC2(C)C(C4=CC(=O)OC4)CCC32O)C1)C1OC(CO)C(O)C(O)C1O [27α, D-mannoside] | > 25 | > 25 | > 25 | > 25 | > 25 | > 25 |  | > 25 | > 25 | > 25 | > 25 |  |  |  |  |  |  |  |  | 
CON(C1CCC2(C)C(CCC3C2CCC2(C)C(C4=CC(=O)OC4)CCC32O)C1)C1OC(CO)C(O)C(O)C1O [26α, L-mannoside] | > 25 | > 25 | > 25 | > 25 | > 25 | > 25 |  | > 25 | > 25 | > 25 | > 25 |  |  |  |  |  |  |  |  | 
CON([C@H]1CC[C@@]2(C)[C@H](CC[C@@H]3[C@@H]2CC[C@]2(C)[C@@H](C4=CC(=O)OC4)CC[C@]32O)C1)[C@@H]1O[C@H](CO)[C@@H](O)[C@H](O)[C@H]1F [12β, 2-deoxy-2-fluoro-D-glucoside] | 2.9 | 3.7 | 9 | 2.6 | 7 | 8 | > 25 | 8 | 8 | 9 |  |  |  |  |  |  |  |  |  | 
L-rhamnoside [16β] | 0.33 | 0.7 | 4 | 0.35 | 3.3 | 0.54 | > 25 | 1.8 | 0.9 | 0.17 |  |  |  |  |  |  |  |  |  | 
CON([C@H]1CC[C@@]2(C)[C@H](CC[C@@H]3[C@@H]2CC[C@]2(C)[C@@H](C4=CC(=O)OC4)CC[C@]32O)C1)[C@@H]1C[C@@](C)(O)[C@@H](O)[C@H](C)O1 [30β, L-mycaroside] | 0.19 | 0.6 | 1.1 | 0.35 | 1.1 | 0.6 | > 25 | 1.8 | 0.6 | 1.1 |  |  |  |  |  |  |  |  |  | 
CON([C@H]1CC[C@@]2(C)[C@H](CC[C@@H]3[C@@H]2CC[C@]2(C)[C@@H](C4=CC(=O)OC4)CC[C@]32O)C1)[C@@H]1OC[C@@H](O)[C@H](O)[C@H]1O [24β, D-xyloside] | 1.8 | 1.1 | 1.8 | 0.54 | 2.1 | 1.2 | 0.9 | 1.8 | 1.8 | 0.82 |  |  |  |  |  |  |  |  |  | 
CON(C1CCC2(C)C(CCC3C2CCC2(C)C(C4=CC(=O)OC4)CCC32O)C1)C1OC(C(=O)O)C(O)C(O)C1O [38α, D-galacturonoside] |  |  |  |  |  |  |  |  |  |  | > 25 | > 25 | > 25 | > 25 | > 25 | > 25 | > 25 | > 25 | > 25 | > 25
CON(C1CCC2(C)C(CCC3C2CCC2(C)C(C4=CC(=O)OC4)CCC32O)C1)C1OC(CO)C(O)C(O)C1O [19α, L-altroside] | > 25 | > 25 | > 25 | > 25 | > 25 | > 25 | > 25 | > 25 | > 25 | > 25 |  |  |  |  |  |  |  |  |  | 
CON(C1CCC2(C)C(CCC3C2CCC2(C)C(C4=CC(=O)OC4)CCC32O)C1)C1OC(CO)C(OC2OC(CO)C(O)C(O)C2O)C(O)C1O (stereo not drawn) [37α, maltoside] |  |  |  |  |  |  |  |  |  |  | > 25 |  | > 25 | > 25 | > 25 |  | > 25 |  |  | > 25
CON(C1CCC2(C)C(CCC3C2CCC2(C)C(C4=CC(=O)OC4)CCC32O)C1)C1OCC(O)C(O)C1O [24α, D-xyloside] | > 25 | > 25 |  |  |  | > 25 |  | > 25 | > 25 | > 25 |  |  |  |  |  |  |  |  |  | 
CON(C1CCC2(C)C(CCC3C2CCC2(C)C(C4=CC(=O)OC4)CCC32O)C1)C1OC(CO)C(OC2OC(CO)C(O)C(O)C2O)C(O)C1O (stereo not drawn) [37β, maltoside] | 6.1 | 4.4 | 5 | 4.4 | 6 | 7 |  | > 25 | 24 | 4.4 |  |  |  |  |  |  |  |  |  | 
CON(C1CCC2(C)C(CCC3C2CCC2(C)C(C4=CC(=O)OC4)CCC32O)C1)C1OC(CO)C(OC2OC(CO)C(O)C(O)C2O)C(O)C1O (stereo not drawn) [36β, lactoside] | > 25 | 24 | 19 | 13 | > 25 | 26 | > 25 | > 25 | > 25 |  |  |  |  |  |  |  |  |  |  | 
CON(C1CCC2(C)C(CCC3C2CCC2(C)C(C4=CC(=O)OC4)CCC32O)C1)C1OCC(O)C(O)C1O [23α, L-xyloside] | > 25 | > 25 |  |  |  | > 25 |  | > 25 | > 25 | > 25 |  |  |  |  |  |  |  |  |  | 
